Measured values as given in US20250325485A1, “STABLE COMPOSITIONS OF FOXY-5 HEXAPEPTIDE WITH HIGH SOLUBILITY” (WNTRESEARCH AB, priority 2021, published 2025).
Where a name gives a salt, the structure may show the parent alone. Peptide text beside a SMILES is read from it. * marks the point of attachment. For = O=C*

Columns and labels:
FIG. 10 = test: FIG. 10
Protocol: Table printed on a drawing sheet, FIG. 10
The patent's description of the figure: FIG. 10
First reader's note: Storage stability of Foxy-5 free acid and its salts shown as HPLC purity and impurity levels (Ala, aspartimide, dimer) initially and after 2 and 4 weeks at 40°C; decimal commas as printed.

[1] = Conversion of Foxy-5 to mono-, di- and tri-sodium salts; type: physicochemical
Protocol: As Foxy-5 contains three carboxylic groups (Asp^2, Glu^5, and the C-terminal carboxylic acids), the mono, di, and tri-sodium salts were generated by treating aqueous slurries of Foxy-5 (25 g/L) with 1 eq., 2 eq. and 3 eq. of sodium hydroxide. As starting material, a batch of Foxy-5 free acid containing very low amounts of two known impurities, the aspartimide (<0.1%) and the dimer, (<0.1%) was used (structures, see FIG. 2).
The di-sodium salt could be completely dissolved within 10 minutes after addition of NaOH (2 eq., pH=4.57). […] After lyophilization, 0.07% dimer and 0.79% aspartimide were detected.
The tri-sodium salt dissolved within 5 minutes after addition of NaOH (3 eq., pH=6.76) with minimal increase of the aspartimide impurity, but increased formation of the dimer was observed. After lyophilization, 0.41% dimer and 0.17% of the aspartimide were detected.

Compound	After 2 weeks @ 40°C | Ala (area%) (FIG. 10)	After 2 weeks @ 40°C | Aspartimide (area%) (FIG. 10)	After 2 weeks @ 40°C | Dimer (area%) (FIG. 10)	After 2 weeks @ 40°C | HPLC purity (area%) (FIG. 10)	After 4 weeks @ 40°C | Ala (area%) (FIG. 10)	After 4 weeks @ 40°C | Aspartimide (area%) (FIG. 10)	After 4 weeks @ 40°C | Dimer (area%) (FIG. 10)	After 4 weeks @ 40°C | HPLC purity (area%) (FIG. 10)	time to complete dissolution after addition of NaOH ([1]; aqueous slurry of Foxy-5 25 g/L)	aspartimide detected after lyophilization ([1]; starting material aspartimide <0.1%, HPLC)	dimer detected after lyophilization ([1]; starting material dimer <0.1%, HPLC)	dissolution after NaOH addition ([1]; aqueous slurry of Foxy-5 25 g/L, 1 eq. NaOH, pH=3.84)
CSCC[C@H](NC=O)C(=O)N[C@@H](CC(=O)O)C(=O)NCC(=O)N[C@@H](CS)C(=O)N[C@@H](CCC(=O)O)C(=O)N[C@@H](CC(C)C)C(=O)O [DEA Di salt] (For-MDGCEL-OH)	0 area%	4,98 area%	1,18 area%	92,88 area%	0,25 area%	7,50 area%	3,10 area%	87,11 area%	–	–	–	–
CSCC[C@H](NC=O)C(=O)N[C@@H](CC(=O)O)C(=O)NCC(=O)N[C@@H](CS)C(=O)N[C@@H](CCC(=O)O)C(=O)N[C@@H](CC(C)C)C(=O)O [DEA Tri salt] (For-MDGCEL-OH)	1,91 area%	5,78 area%	8,10 area%	82,51 area%	1,82 area%	7,20 area%	5,80 area%	80,92 area%	–	–	–	–
CSCC[C@H](NC=O)C(=O)N[C@@H](CC(=O)O)C(=O)NCC(=O)N[C@@H](CS)C(=O)N[C@@H](CCC(=O)O)C(=O)N[C@@H](CC(C)C)C(=O)O [Foxy-5 free acid] (For-MDGCEL-OH)	0 area%	0,75 area%	0,00 area%	98,40 area%	0,00 area%	0,80 area%	0,00 area%	98,21 area%	–	–	–	–
CSCC[C@H](NC=O)C(=O)N[C@@H](CC(=O)O)C(=O)NCC(=O)N[C@@H](CS)C(=O)N[C@@H](CCC(=O)O)C(=O)N[C@@H](CC(C)C)C(=O)O [HIS Di salt] (For-MDGCEL-OH)	0 area%	1,97 area%	0,00 area%	97,40 area%	0,00 area%	2,40 area%	0,00 area%	96,52 area%	–	–	–	–
CSCC[C@H](NC=O)C(=O)N[C@@H](CC(=O)O)C(=O)NCC(=O)N[C@@H](CS)C(=O)N[C@@H](CCC(=O)O)C(=O)N[C@@H](CC(C)C)C(=O)O [HIS Tri salt] (For-MDGCEL-OH)	0 area%	1,97 area%	1,10 area%	96,41 area%	0,00 area%	2,43 area%	0,90 area%	95,32 area%	–	–	–	–
CSCC[C@H](NC=O)C(=O)N[C@@H](CC(=O)O)C(=O)NCC(=O)N[C@@H](CS)C(=O)N[C@@H](CCC(=O)O)C(=O)N[C@@H](CC(C)C)C(=O)O [LYS Di salt] (For-MDGCEL-OH)	0 area%	2,50 area%	0,00 area%	97,06 area%	0,47 area%	2,80 area%	0,55 area%	95,17 area%	–	–	–	–
CSCC[C@H](NC=O)C(=O)N[C@@H](CC(=O)O)C(=O)NCC(=O)N[C@@H](CS)C(=O)N[C@@H](CCC(=O)O)C(=O)N[C@@H](CC(C)C)C(=O)O [LYS Tri salt] (For-MDGCEL-OH)	4,25 area%	1,10 area%	1,80 area%	92,29 area%	8,45 area%	1,26 area%	3,40 area%	84,97 area%	–	–	–	–
CSCC[C@H](NC=O)C(=O)N[C@@H](CC(=O)O)C(=O)NCC(=O)N[C@@H](CS)C(=O)N[C@@H](CCC(=O)O)C(=O)N[C@@H](CC(C)C)C(=O)O [NH3 Di salt] (For-MDGCEL-OH)	0 area%	4,45 area%	0,38 area%	92,27 area%	0,00 area%	5,52 area%	0,27 area%	89,75 area%	–	–	–	–
CSCC[C@H](NC=O)C(=O)N[C@@H](CC(=O)O)C(=O)NCC(=O)N[C@@H](CS)C(=O)N[C@@H](CCC(=O)O)C(=O)N[C@@H](CC(C)C)C(=O)O [NH3 Tri salt] (For-MDGCEL-OH)	0 area%	4,10 area%	2,95 area%	88,64 area%	0,00 area%	3,88 area%	3,37 area%	86,45 area%	–	–	–	–
CSCC[C@H](NC=O)C(=O)N[C@@H](CC(=O)O)C(=O)NCC(=O)N[C@@H](CS)C(=O)N[C@@H](CCC(=O)O)C(=O)N[C@@H](CC(C)C)C(=O)O [NMG Di salt] (For-MDGCEL-OH)	0 area%	3,85 area%	0,93 area%	93,22 area%	0,00 area%	6,17 area%	0,81 area%	91,23 area%	–	–	–	–
CSCC[C@H](NC=O)C(=O)N[C@@H](CC(=O)O)C(=O)NCC(=O)N[C@@H](CS)C(=O)N[C@@H](CCC(=O)O)C(=O)N[C@@H](CC(C)C)C(=O)O [NMG Tri salt] (For-MDGCEL-OH)	0 area%	1,76 area%	1,13 area%	95,97 area%	0,00 area%	3,06 area%	0,82 area%	95,14 area%	–	–	–	–
CSCC[C@H](NC=O)C(=O)N[C@@H](CC(=O)O)C(=O)NCC(=O)N[C@@H](CS)C(=O)N[C@@H](CCC(=O)O)C(=O)N[C@@H](CC(C)C)C(=O)O [Na Tri salt] (For-MDGCEL-OH)	13,4 area%	0,53 area%	13,20 area%	68,15 area%	14,70 area%	0,30 area%	16,80 area%	60,34 area%	–	–	–	–
CSCC[C@H](NC=O)C(=O)N[C@@H](CC(=O)O)C(=O)NCC(=O)N[C@@H](CS)C(=O)N[C@@H](CCC(=O)O)C(=O)N[C@@H](CC(C)C)C(=O)O [TRO Di salt] (For-MDGCEL-OH)	0 area%	2,75 area%	0,00 area%	96,51 area%	0,00 area%	4,20 area%	0,60 area%	93,87 area%	–	–	–	–
CSCC[C@H](NC=O)C(=O)N[C@@H](CC(=O)O)C(=O)NCC(=O)N[C@@H](CS)C(=O)N[C@@H](CCC(=O)O)C(=O)N[C@@H](CC(C)C)C(=O)O [TRO Tri salt] (For-MDGCEL-OH)	0 area%	8,24 area%	0,63 area%	87,27 area%	0,00 area%	11,40 area%	1,28 area%	78,60 area%	–	–	–	–
CSCC[C@H](NC=O)C(=O)N[C@@H](CC(=O)O)C(=O)NCC(=O)N[C@@H](CS)C(=O)N[C@@H](CCC(=O)O)C(=O)N[C@@H](CC(C)C)C(=O)O [di-sodium salt] (For-MDGCEL-OH)	–	–	–	–	–	–	–	–	≤ 10 min	0.79%	0.07%	–
CSCC[C@H](NC=O)C(=O)N[C@@H](CC(=O)O)C(=O)NCC(=O)N[C@@H](CS)C(=O)N[C@@H](CCC(=O)O)C(=O)N[C@@H](CC(C)C)C(=O)O [mono-sodium salt] (For-MDGCEL-OH)	–	–	–	–	–	–	–	–	–	–	–	could not be completely dissolved
